Measurements: US6423109B1, “Free flowing fertilizer composition with enhanced deposition/anti drift characteristics” (Adjuvants Unlimited Inc., priority 2000, dated 2002)

Assay: Gel formation (% +50 mesh gel bound)
Assay type: physicochemical
Conditions: tap water at 1% dilution

SMILES: N.N.O=S(=O)(O)O [Ammonium Sulfate (AMS), Ammonium Sulfate]
- % +50 mesh gel bound: 0%
